According to PubChem BioAssay AID248 (DTP/NCI, 2004):
“And” between values parts separate entries of the source, which are not always exact repeats. Equal entries are not always repeated. Inconclusive results and toxic doses are left out. No stated cut-off is given here; in the data, active means T/C of 150% or more; inactive means T/C below 125%.

Test system: L1210 leukemia ip in BDF1 mice, survival T/C
Assay: NCI In Vivo Anticancer Drug Screen. Data for tumor model L1210 Leukemia (intraperitoneal) in B6D2F1 (BDF1) mice
Conditions: endpoint: mean survival time, higher = longer survival
Outline: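 Tumor cells were implanted, animals were treated, and survival was followed. The result divides the treated measurement by the vehicle-control measurement.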

[1] = dose: 100.0 mg/kg/injection, schedule: Q01DX001 (ip), vehicle: saline
[2] = dose: 200.0 mg/kg/injection, schedule: Q01DX001 (ip), vehicle: saline
[3] = dose: 400.0 mg/kg/injection, schedule: Q01DX001 (ip), vehicle: saline
[4] = dose: 50.0 mg/kg/injection, schedule: Q01DX001 (ip), vehicle: saline
[5] = dose: 12.5 mg/kg/injection, schedule: Q04DX003 (ip), vehicle: saline
[6] = dose: 25.0 mg/kg/injection, schedule: Q04DX003 (ip), vehicle: saline
[7] = dose: 50.0 mg/kg/injection, schedule: Q04DX003 (ip), vehicle: saline
[8] = dose: 100.0 mg/kg/injection, schedule: Q04DX003 (ip), vehicle: saline
[9] = dose: 100.0 mg/kg/injection, schedule: Q04DX003 (ip), vehicle: saline with Tween-80
[10] = dose: 200.0 mg/kg/injection, schedule: Q04DX003 (ip), vehicle: saline with Tween-80
[11] = dose: 400.0 mg/kg/injection, schedule: Q04DX003 (ip), vehicle: saline with Tween-80
[12] = dose: 100.0 mg/kg/injection, schedule: Q04DX003 (ip), vehicle: Klucel (hydroxypropylcellulose) (HPC)
[13] = dose: 200.0 mg/kg/injection, schedule: Q04DX003 (ip), vehicle: Klucel (hydroxypropylcellulose) (HPC)
[14] = dose: 400.0 mg/kg/injection, schedule: Q04DX003 (ip), vehicle: Klucel (hydroxypropylcellulose) (HPC)
[15] = dose: 50.0 mg/kg/injection, schedule: Q01DX001 (ip), vehicle: Klucel (hydroxypropylcellulose) (HPC)
[16] = dose: 100.0 mg/kg/injection, schedule: Q01DX001 (ip), vehicle: Klucel (hydroxypropylcellulose) (HPC)

Measured: T/C

COC(=O)C1C2CC3C(OC(=O)C31C)C2I (stereo unspecified)
inactive: [1] 90 % of control | [2] 107 % of control | [3] 110 % of control

CC(=O)N(C)c1cc([N+](=O)[O-])ccc1OCc1ccccc1
inactive: [4] 102 % of control | [1] 96 % of control

CCCCCCCCCCCC[N+](C)(C)CCn1cnc2c(N)ncnc21
inactive: dose: 6.25 mg/kg/injection, schedule: Q04DX003 (ip), vehicle: saline 106 % of control | [5] 109 % of control | [6] 103 % of control

CC1([N+](=O)[O-])COP(=O)(Nc2ccccc2)OC1 (stereo unspecified)
inactive: [4] 96 % of control | [1] 98 % of control | [2] 93 % of control | [3] 110 % of control

CC#CC(C)=O
inactive: [6] 100 % of control | [7] 92 % of control | [8] 100 % of control

CCCCCCCCCCCCCCCC[N+]1(C)CCS(C)(OS(=O)(=O)OC)CC1 (stereo unspecified)
inactive: dose: 6.25 mg/kg/injection, schedule: Q01DX001 (ip), vehicle: saline 95 % of control | dose: 12.5 mg/kg/injection, schedule: Q01DX001 (ip), vehicle: saline 88 % of control | dose: 25.0 mg/kg/injection, schedule: Q01DX001 (ip), vehicle: saline 88 % of control

COCC(CNO)OC(=O)c1ccc(N)cc1 (stereo unspecified)
inactive: dose: 55.0 mg/kg/injection, schedule: Q01DX Z (ip), vehicle: saline 89 % of control | dose: 125.0 mg/kg/injection, schedule: Q01DX Z (ip), vehicle: saline 100 % of control

O=C(Nc1ccc(O)cc1)c1ccc(C(=O)Nc2ccc(O)cc2)cc1
inactive: dose: 15.0 mg/kg/injection, schedule: Q01DX Z (ip), vehicle: methylcellulose (MC) 112 % of control | dose: 30.0 mg/kg/injection, schedule: Q01DX Z (ip), vehicle: methylcellulose (MC) 93 % of control | dose: 60.0 mg/kg/injection, schedule: Q01DX Z (ip), vehicle: methylcellulose (MC) 98 % of control | dose: 120.0 mg/kg/injection, schedule: Q01DX Z (ip), vehicle: methylcellulose (MC) 98 % of control

C(=Nc1ccccc1)c1ccccc1B1Oc2ccccc2O1
inactive: dose: 100.0 mg/kg/injection, schedule: Q01DX009 (ip), vehicle: Klucel (hydroxypropylcellulose) (HPC) 100 % of control | dose: 200.0 mg/kg/injection, schedule: Q01DX009 (ip), vehicle: Klucel (hydroxypropylcellulose) (HPC) 96 % of control | dose: 400.0 mg/kg/injection, schedule: Q01DX009 (ip), vehicle: Klucel (hydroxypropylcellulose) (HPC) 119 % of control

Fc1cc(N(CCCl)CCCl)ccc1CN1CCCN(Cc2ccc(N(CCCl)CCCl)cc2F)C1c1ccc(N(CCCl)CCCl)cc1Cl
inactive: dose: 50.0 mg/kg/injection, schedule: Q01DX001 (ip), vehicle: carboxymethylcellulose (CMC) 105 % of control | dose: 100.0 mg/kg/injection, schedule: Q01DX001 (ip), vehicle: carboxymethylcellulose (CMC) 96 % of control | dose: 200.0 mg/kg/injection, schedule: Q01DX001 (ip), vehicle: carboxymethylcellulose (CMC) 100 % of control | dose: 400.0 mg/kg/injection, schedule: Q01DX001 (ip), vehicle: carboxymethylcellulose (CMC) 102 % of control

CC(=O)c1ccc2c(c1)-c1ccccc1C(=O)C2=O
inactive: [9] 89 % of control | [10] 94 % of control | [11] 91 % of control

Nc1cccc(CCCCc2ccccc2)c1
inactive: dose: 100.0 mg/kg/injection, schedule: Q01DX001 (ip), vehicle: saline with Tween-80 102 % of control | dose: 200.0 mg/kg/injection, schedule: Q01DX001 (ip), vehicle: saline with Tween-80 100 % of control

Cc1cc(C)c(C(=O)C2CC=CCC2c2c(C)cc(C)cc2C)c(C)c1 (stereo unspecified)
inactive: [12] 101 % of control | [13] 94 % of control | [14] 95 % of control

O=c1oc2ccccc2c(O)c1C(c1ccc2c(c1)CCC2)c1c(O)c2ccccc2oc1=O
inactive: [12] 92 % of control | [13] 100 % of control | [14] 92 % of control

O=C(O)c1cccc([N+](=O)[O-])c1C(=O)c1ccccc1
inactive: [9] 95 % of control | [10] 97 % of control | [11] 93 % of control

COc1ccc(C2C(C(=O)N3CCN(C)CC3)C2c2ccc(OC)cc2)cc1 (stereo unspecified)
inactive: dose: 12.5 mg/kg/injection, schedule: Q04DX002 (ip), vehicle: saline 102 % of control | dose: 25.0 mg/kg/injection, schedule: Q04DX002 (ip), vehicle: saline 102 % of control | dose: 50.0 mg/kg/injection, schedule: Q04DX002 (ip), vehicle: saline 102 % of control

Cc1cc(NC(=O)CCc2ccc(N3C(N)=NC(N)=NC3(C)C)cc2)ccc1S(=O)(=O)F
inactive: dose: 4.0 mg/kg/injection, schedule: Q03HX024 (ip), vehicle: other 104 % of control | dose: 7.82 mg/kg/injection, schedule: Q12HX018 (ip), vehicle: acetone 106 % of control | dose: 8.0 mg/kg/injection, schedule: Q03HX008 (ip), vehicle: other 117 % of control | dose: 8.0 mg/kg/injection, schedule: Q03HX024 (ip), vehicle: other 114 % of control | dose: 15.62 mg/kg/injection, schedule: Q12HX018 (ip), vehicle: acetone 105 % of control | dose: 16.0 mg/kg/injection, schedule: Q01DX009 (ip), vehicle: other 112 % of control | dose: 16.0 mg/kg/injection, schedule: Q03HX008 (ip), vehicle: other 104 % of control | dose: 16.0 mg/kg/injection, schedule: Q03HX024 (ip), vehicle: other 114 % of control | dose: 18.0 mg/kg/injection, schedule: Q## X018 (ip), vehicle: saline 118 % of control | dose: 25.0 mg/kg/injection, schedule: Q01DX001 (ip), vehicle: Klucel (hydroxypropylcellulose) (HPC) 103 % of control | dose: 31.25 mg/kg/injection, schedule: Q12HX018 (ip), vehicle: acetone 113 % of control | dose: 32.0 mg/kg/injection, schedule: Q01DX009 (ip), vehicle: other 120 % of control | dose: 32.0 mg/kg/injection, schedule: Q03HX008 (ip), vehicle: other 109 % of control | dose: 32.0 mg/kg/injection, schedule: Q03HX024 (ip), vehicle: other 117 % of control | dose: 32.0 mg/kg/injection, schedule: Q04DX003 (ip), vehicle: other 109 % of control | [15] 105 % of control | dose: 64.0 mg/kg/injection, schedule: Q01DX001 (ip), vehicle: other 95 % of control | dose: 64.0 mg/kg/injection, schedule: Q01DX009 (ip), vehicle: other 117 % of control | dose: 64.0 mg/kg/injection, schedule: Q03HX008 (ip), vehicle: other 111 % of control | dose: 64.0 mg/kg/injection, schedule: Q04DX003 (ip), vehicle: other 104 % of control | [16] 101 % of control and 92 % of control | dose: 200.0 mg/kg/injection, schedule: Q01DX001 (ip), vehicle: Klucel (hydroxypropylcellulose) (HPC) 92 % of control | dose: 400.0 mg/kg/injection, schedule: Q01DX001 (ip), vehicle: Klucel (hydroxypropylcellulose) (HPC) 92 % of control

O=C1C[C@@H]2OCC=C3C[N+]4([O-])CC[C@]56c7ccccc7N1[C@H]5[C@H]2[C@H]3C[C@@H]64 (stereo partly specified)
inactive: dose: 150.0 mg/kg/injection, schedule: Q01DX001 (ip), vehicle: saline 106 % of control

CS(=O)(=O)c1cccc(N)c1
inactive: [1] 102 % of control | [2] 91 % of control | [3] 98 % of control

Cc1nc(N)[nH]c(=O)c1NC(=O)CBr
inactive: [15] 100 % of control | [16] 104 % of control

CC(C)(CCC(=O)O)[N+](=O)[O-]
inactive: [7] 106 % of control | [8] 105 % of control | dose: 200.0 mg/kg/injection, schedule: Q04DX003 (ip), vehicle: saline 101 % of control

CC(C)(C)C([NH-])=O.CC(C)(C)C([NH-])=O.[Cl][Pt+2][Cl]
inactive: dose: 6.25 mg/kg/injection, schedule: Q01DX009 (ip), vehicle: saline 86 % of control | dose: 12.5 mg/kg/injection, schedule: Q01DX009 (ip), vehicle: saline 94 % of control | [5] 116 % of control | dose: 25.0 mg/kg/injection, schedule: Q01DX009 (ip), vehicle: saline 101 % of control | [6] 102 % of control | [7] 109 % of control
